# Target: human integrin αvβ6 (Homo sapiens (Human), UniProt P06756+P18564)
# Assay: Proximity-based integrin receptor binding assay (ALPHASCREEN) for inhibitor potency
# Details: inhibition of binding of TGF-b1 LAP to human integrin αvβ6; values given in ranges
# Outline: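 AlphaScreen: integrin, compound, TGF-b1 LAP, biotinylated anti-LAP antibody and acceptor beads incubated 2 hours, then streptavidin donor beads 30 minutes, at room temperature in 50 mM Tris-HCl pH 7.5, 0.1% BSA, 1 mM CaCl2 and MgCl2. Excitation 680 nm, emission 520-620 nm; IC50 by four-parameter logistic fit.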
# Chain of human integrin αvβ6 (P06756 31-992): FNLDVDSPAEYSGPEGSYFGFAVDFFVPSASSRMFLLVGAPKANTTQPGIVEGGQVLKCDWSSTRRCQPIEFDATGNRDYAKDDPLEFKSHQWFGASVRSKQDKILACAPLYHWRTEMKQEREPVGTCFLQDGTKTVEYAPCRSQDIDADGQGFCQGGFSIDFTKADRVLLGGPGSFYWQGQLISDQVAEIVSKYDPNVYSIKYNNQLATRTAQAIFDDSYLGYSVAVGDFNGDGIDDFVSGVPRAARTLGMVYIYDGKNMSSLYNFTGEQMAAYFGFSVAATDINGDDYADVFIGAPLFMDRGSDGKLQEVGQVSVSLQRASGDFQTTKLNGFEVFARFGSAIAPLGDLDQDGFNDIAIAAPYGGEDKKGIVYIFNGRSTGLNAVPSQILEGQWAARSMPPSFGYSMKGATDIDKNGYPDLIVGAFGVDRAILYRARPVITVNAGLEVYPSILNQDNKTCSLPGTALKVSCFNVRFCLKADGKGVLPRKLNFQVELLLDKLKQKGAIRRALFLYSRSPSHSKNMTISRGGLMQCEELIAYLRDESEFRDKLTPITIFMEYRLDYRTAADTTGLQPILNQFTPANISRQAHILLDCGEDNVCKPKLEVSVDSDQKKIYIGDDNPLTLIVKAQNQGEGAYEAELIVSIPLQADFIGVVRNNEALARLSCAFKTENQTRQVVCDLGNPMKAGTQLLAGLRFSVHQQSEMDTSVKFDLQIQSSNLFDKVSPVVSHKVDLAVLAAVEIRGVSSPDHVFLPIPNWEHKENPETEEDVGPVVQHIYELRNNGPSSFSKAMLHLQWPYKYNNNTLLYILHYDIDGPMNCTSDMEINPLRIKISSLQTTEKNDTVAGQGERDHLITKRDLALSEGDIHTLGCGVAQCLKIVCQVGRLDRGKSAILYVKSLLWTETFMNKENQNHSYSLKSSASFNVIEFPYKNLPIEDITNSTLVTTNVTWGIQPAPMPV
# Chain of human integrin αvβ6 (P18564 22-707): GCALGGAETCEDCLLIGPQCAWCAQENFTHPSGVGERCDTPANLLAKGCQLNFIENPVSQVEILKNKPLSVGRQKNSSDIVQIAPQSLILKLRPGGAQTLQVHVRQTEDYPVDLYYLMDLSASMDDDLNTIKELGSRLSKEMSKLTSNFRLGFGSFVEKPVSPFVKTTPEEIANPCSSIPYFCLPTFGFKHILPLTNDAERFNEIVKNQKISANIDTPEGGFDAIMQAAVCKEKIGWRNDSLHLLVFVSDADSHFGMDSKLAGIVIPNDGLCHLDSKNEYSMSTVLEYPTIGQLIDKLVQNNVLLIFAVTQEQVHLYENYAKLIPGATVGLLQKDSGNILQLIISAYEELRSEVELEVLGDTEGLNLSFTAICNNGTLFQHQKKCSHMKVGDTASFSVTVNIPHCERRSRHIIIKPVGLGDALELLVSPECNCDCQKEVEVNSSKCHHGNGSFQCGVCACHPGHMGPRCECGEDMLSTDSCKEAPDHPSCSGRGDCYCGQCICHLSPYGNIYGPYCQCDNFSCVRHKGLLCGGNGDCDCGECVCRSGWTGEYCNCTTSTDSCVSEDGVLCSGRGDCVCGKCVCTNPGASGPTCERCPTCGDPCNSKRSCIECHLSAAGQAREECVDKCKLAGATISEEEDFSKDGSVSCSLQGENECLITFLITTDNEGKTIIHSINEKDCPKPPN
row,IC50,Compound
1,250 to 1000 nM,"C[C@@H](OC(=O)N[C@@H](CCO[C@H]1C[C@H](CCc2ccc3c(n2)NCCC3)C1)C(=O)O)c1ccccc1 [Compound 140, N—(((R)-1-phenylethoxy)carbonyl)-O-(trans-3-(2-(5,6,7,8-tetrahydro-1,8-naphthyridin-2-yl)ethyl)cyclobutyl)homoserine]"
2,250 to 1000 nM,"O=C(NC(CCO[C@H]1C[C@H](CCc2ccc3c(n2)NCCC3)C1)C(=O)O)C1Cc2ccccc2C1 (stereo partly drawn) [Compound 92, N-(2,3-dihydro-1H-indene-2-carbonyl)-O-(trans-3-(2-(5,6,7,8-tetrahydro-1,8-naphthyridin-2-yl)ethyl)cyclobutyl)homoserine]"
3,50 to 250 nM,"CC(C)(C)C(=O)NC(CCO[C@H]1C[C@H](CCc2ccc3c(n2)NCCC3)C1)C(=O)O (stereo partly drawn) [Compound 94, N-pivaloyl-O-(trans-3-(2-(5,6,7,8-tetrahydro-1,8-naphthyridin-2-yl)ethyl)cyclobutyl)homoserine]"
4,250 to 1000 nM,"CC(=O)NC[C@@H](C)OC(=O)N[C@@H](CCO[C@H]1C[C@H](CCc2ccc3c(n2)NCCC3)C1)C(=O)O [Compound 154, N—((((R)-1-acetamidopropan-2-yl)oxy)carbonyl)-O-(trans-3-(2-(5,6,7,8-tetrahydro-1,8-naphthyridin-2-yl)ethyl)cyclobutyl)homoserine]"
5,> 1000 nM,"O=C(O)C(CCO[C@H]1C[C@@H](CCc2ccc3c(n2)NCCC3)C1)NC(=O)[C@@H](CO)c1ccccc1 (stereo partly drawn) [Compound 71, N—((R)-3-hydroxy-2-phenylpropanoyl)-O-(cis-3-(2-(5,6,7,8-tetrahydro-1,8-naphthyridin-2-yl)ethyl)cyclobutyl)homoserine]"
6,50 to 250 nM,"O=C(N[C@@H](CCO[C@H]1C[C@H](CCc2ccc3c(n2)NCCC3)C1)C(=O)O)O[C@H]1CCCC[C@@H]1c1ccccc1 [Compound 146, N-((((1S,2R)-2-phenylcyclohexyl)oxy)carbonyl)-O-(trans-3-(2-(5,6,7,8-tetrahydro-1,8-naphthyridin-2-yl)ethyl)cyclobutyl)homoserine]"
7,< 50 nM,"COCC(C)(C)C(=O)NC(CCO[C@H]1C[C@H](CCc2ccc3c(n2)NCCC3)C1)C(=O)O (stereo partly drawn) [Compound 105, N-(3-methoxy-2,2-dimethylpropanoyl)-O-(trans-3-(2-(5,6,7,8-tetrahydro-1,8-naphthyridin-2-yl)ethyl)cyclobutyl)homoserine]"
8,250 to 1000 nM,"CC(C)(C)c1ccnc(N[C@@H](CCO[C@H]2C[C@H](CCc3ccc4c(n3)NCCC4)C2)C(=O)O)n1 [Example 226, N-(4-(tert-butyl)pyrimidin-2-yl)-O-(trans-3-(2-(5,6,7,8-tetrahydro-1,8-naphthyridin-2-yl)ethyl)cyclobutyl)homoserine]"
9,50 to 250 nM,"O=C(NC(CCOCCCCc1ccc2c(n1)NCCC2)C(=O)O)c1c(Cl)cccc1Cl (stereo not shown) [Compound 188, N-(2,6-dichlorobenzoyl)-O-(4-(5,6,7,8-tetrahydro-1,8-naphthyridin-2-yl)butyl)homoserine]"

# Continued, compound first:
row,Compound,IC50
1,"O=C(N[C@@H](CCO[C@H]1C[C@H](CCc2ccc3c(n2)NCCC3)C1)C(=O)O)O[C@H]1C[C@@H](c2ccccc2)C1 [Compound 143, N-((cis-3-phenylcyclobutoxy)carbonyl)-O-(trans-3-(2-(5,6,7,8-tetrahydro-1,8-naphthyridin-2-yl)ethyl)cyclobutyl)homoserine]",250 to 1000 nM
2,"C[C@@H](CNC(=O)OC(C)(C)C)OC(=O)N[C@@H](CCO[C@H]1C[C@H](CCc2ccc3c(n2)NCCC3)C1)C(=O)O [Compound 152, N—((((S)-1-((tert-butoxycarbonyl)amino)propan-2-yl)oxy)carbonyl)-O-(trans-3-(2-(5,6,7,8-tetrahydro-1,8-naphthyridin-2-yl)ethyl)cyclobutyl)homoserine]",< 50 nM
3,"O=C(N[C@@H](CCO[C@H]1C[C@H](CCc2ccc3c(n2)NCCC3)C1)C(=O)O)c1ccc(F)cc1Cl [Compound 25, N-(2-chloro-4-fluorobenzoyl)-O-(trans-3-(2-(5,6,7,8-tetrahydro-1,8-naphthyridin-2-yl)ethyl)cyclobutyl)homoserine]",< 50 nM
4,"CC(C)(C)OC(=O)N1CC(C#Cc2ccccc2)(OC(=O)N[C@@H](CCO[C@H]2C[C@H](CCc3ccc4c(n3)NCCC4)C2)C(=O)O)C1 [Compound 159, N-(((1-(tert-butoxycarbonyl)-3-(phenylethynyl)azetidin-3-yl)oxy)carbonyl)-O-(trans-3-(2-(5,6,7,8-tetrahydro-1,8-naphthyridin-2-yl)ethyl)cyclobutyl)homoserine]",< 50 nM
5,"O=C(N[C@@H](CCO[C@H]1C[C@H](CCc2ccc3c(n2)NCCC3)C1)C(=O)O)C1CCc2ccccc21 (single isomer, unassigned) [110**,†]",50 to 250 nM
6,"O=C(N[C@@H](CCO[C@H]1C[C@H](CCc2ccc3c(n2)NCCC3)C1)C(=O)O)c1cccc2ncccc12 [Compound 51, N-(quinoline-5-carbonyl)-O-(trans-3-(2-(5,6,7,8-tetrahydro-1,8-naphthyridin-2-yl)ethyl)cyclobutyl)homoserine]",< 50 nM
7,"O=C(NC(CCOCCCCc1ccc2c(n1)NCCC2)C(=O)O)c1cc(F)cc(C(F)(F)F)c1 (stereo not shown) [Compound 9, N-(3-fluoro-5-(trifluoromethyl)benzoyl)-O-(4-(5,6,7,8-tetrahydro-1,8-naphthyridin-2-yl)butyl)homoserine]",50 to 250 nM
8,"Cn1ccc2cc(C(=O)N[C@@H](CCO[C@H]3C[C@H](CCc4ccc5c(n4)NCCC5)C3)C(=O)O)cnc21 [Compound 48, N-(1-methyl-1H-pyrrolo[2,3-b]pyridine-5-carbonyl)-O-(trans-3-(2-(5,6,7,8-tetrahydro-1,8-naphthyridin-2-yl)ethyl)cyclobutyl)homoserine]",250 to 1000 nM
9,"O=C(O)C(CCO[C@H]1C[C@H](CCc2ccc3c(n2)NCCC3)C1)NC(=O)[C@H](CO)c1ccccc1 (stereo partly drawn) [Compound 47, N—((S)-3-hydroxy-2-phenylpropanoyl)-O-(trans-3-(2-(5,6,7,8-tetrahydro-1,8-naphthyridin-2-yl)ethyl)cyclobutyl)homoserine]",250 to 1000 nM
10,"CCCCC(=O)NC(CCOC1CC(CCc2ccc3c(n2)NCCC3)C1)C(=O)O (stereo not shown) [Compound 11, N-pentanoyl-O-(3-(2-(5,6,7,8-tetrahydro-1,8-naphthyridin-2-yl)ethyl)cyclobutyl)homoserine]",50 to 250 nM
11,"Cn1ncc2c(C(=O)N[C@@H](CCO[C@H]3C[C@H](CCc4ccc5c(n4)NCCC5)C3)C(=O)O)cccc21 [Compound 38, N-(1-methyl-1H-indazole-4-carbonyl)-O-(trans-3-(2-(5,6,7,8-tetrahydro-1,8-naphthyridin-2-yl)ethyl)cyclobutyl)homoserine]",50 to 250 nM

# Same assay, conditions: inhibition of binding of TGF-b1 LAP to human integrin αvβ6; values given in ranges; listed as 61*
row,IC50,Compound
1,> 1000 nM,"O=C(NC(CCO[C@H]1C[C@H](CCc2ccc3c(n2)NCCC3)C1)C(=O)O)c1cccc(-c2cncs2)c1 (stereo partly drawn) [Compound 61, O-(trans-3-(2-(5,6,7,8-tetrahydro-1,8-naphthyridin-2-yl)ethyl)cyclobutyl)-N-(3-(thiazol-5-yl)benzoyl)homoserine]"

# Same assay, conditions: inhibition of binding of TGF-b1 LAP to human integrin αvβ6; values given in ranges; listed as 83*
row,IC50,Compound
1,> 1000 nM,"CC(C)(C(=O)NC(CCO[C@H]1C[C@H](CCc2ccc3c(n2)NCCC3)C1)C(=O)O)c1ccccc1 (stereo partly drawn) [Compound 83, N-(2-methyl-2-phenylpropanoyl)-O-(trans-3-(2-(5,6,7,8-tetrahydro-1,8-naphthyridin-2-yl)ethyl)cyclobutyl)homoserine]"

# From US11180494B2, “Substituted amino acids as integrin inhibitors” (Pliant Therapeutics, Inc., priority 2018, dated 2021)
